In patent US7713960B2, “Inhibition of the Raf/Mek/P-Erk pathway for treating cancer” (University of South Florida, priority 2005, dated 2010):

Tests used:
Rap-1 = Rap-1 activation assay, ACHN cells; format: cell-based, human; settings: 10 μM, 1 hour
Procedure: The effect of B2AR stimulation on Rap1 was investigated using the following methods: A Rap-1 activation assay kit (Upstate, Temecula, Calif.) was used according to protocol to determine if stimulation of the B2AR by ARA-211, and subsequent downstream signaling resulting in inhibition of P-Erk 1/2, is mediated by activation of Rap-1 directly by the Rap-1 guanine nucleotide exchange factor Epac. […] Cells were incubated with drugs for 1 hour unless noted otherwise. Cells were then lysed, the positive control lysate was incubated with 10 mM EDTA and 100 μM GTPγS and incubated for 30 minutes to load GTP onto Rap-1. Lysates from all samples were then incubated with 25 μg GST-RalGDS-Rap-1 binding domain beads for 45 minutes, washed with assay buffer 3×, resuspended in 40 μl of 2×Laemmli sample buffer and boiled for 5 minutes. Samples were resolved by SDS-PAGE electrophoresis, transferred to nitrocellulose, blotted overnight with 1 μ/ml polyclonal anti-Rap-1, and visualized by chemiluminescence.

P-Erk 1/2 = P-Erk 1/2 levels (Western blotting), MDA-MB-231; format: cell-based, human; settings: MDA-MB-231; with ARA-211
Procedure: Western Blotting—Treated cell samples were lysed in 30 mM HEPES, 10 mM NaCl, 5 mM MgCl2, 25 mM NaF, 1 mM EGTA, 1% Triton-X-100, 10% Glycerol, 2 mM Sodium orthovanidate, 10 μg/mL aprotinin, 10 μg/mL soybean trypsin inhibitor, 25 μg/mL leupeptin, 2 mM phenylmethylsulfonylfluoride (PMSF), 6.4 mg/mL p-nitrophenylphosphate for 30 minutes at 4° C., and proteins run on SDS-PAGE gels then transferred to nitrocellulose membranes. Membranes were blocked in either 5% milk in PBS, pH 7.4, containing 0.1% Tween-20 (PBS-T) or 1% BSA in TBS, pH 7.5, containing 0.1% Tween-20 (TBS-T). Phospho-STAT3 and phospho-AKT antibodies were diluted in 1% BSA in TBS-T while phospho-c-Raf, phospho-Mek, and phospho-p44/p42 MAPK antibodies (Cell Signaling) were diluted in 5% milk in PBS-T for either 1 hour at room temperature or overnight at 4° C. HRP-conjugated secondary antibodies (Jackson ImmunoResearch, West Grove, Pa.) were diluted in 5% milk in PBS-T or TBS-T at a 1:1000 dilution for one hour at room temperature. Western blots results were visualized using enhanced chemiluminescence. Stripping of the membranes for reblotting was done using stripping buffer (62.5 mM Tris pH 7.6, 2% SDS, 0.7% 2-mercaptoethanol) at 50° C. for 30 minutes.

MDA-MB-231 cells = test: Alamar Blue proliferation assay, MDA-MB-231; format: cell-based, human; settings: MDA-MB-231; with ARA-211
Procedure: Cell Lines and Transfections—All cell lines used were obtained from American Type Tissue Collection (ATCC), (Manassas, Va.), or from the DCTD Tumor Repository, (Frederick, Md.). Propagation was carried out according to ATCC protocols. Propagation media was obtained from Invitrogen Corporation (Carlsbad, Calif.). DNA transfections were carried out using TransIT-LT1 transfection reagent (Takara Mirus, Madison, Wis.) according to the manufacturer's protocol. Briefly, 4×10^5 MDA-MB-231 cells were grown to approximately 70% confluency in medium supplemented with 10% FBS (Atlanta Biologicals, Atlanta, Ga.) in the absence of antibiotics. For transfection, LT1 was pre-incubated in 200 μl per transfection in Opti-MEM (Invitrogen) for 20 minutes prior to addition of plasmid. […]
Alamar Blue proliferation assay—For proliferation assays using exogenous constitutively activated MEK or the B2AR antagonist ICI-118.551, Alamar Blue metabolism assay used to determine cell viability according to the manufacturers protocol (Biosource, Camarillo, Calif.). […] Media/Alamar Blue was removed from the cells and aliquoted into 96 well plates (100 μl per well) and fluorescence read on a Wallac Victor 2 plate reader at excitation 540 nm, and emission 615 nm.

Mek-1 = biological target: T1, Mek-1 (Homo sapiens, UniProt Q02750); test: In vitro kinase assay, Mek-1 immunoprecipitated from MDA-MB-231 cells; format: biochemical; settings: immunoprecipitated kinase treated in vitro, 10 μM
T1 construct: c-Raf-1 and Mek-1, immunoprecipitated from MDA-MB-231 cells; endogenous in cells; host or cells: MDA-MB-231
Procedure: In Vitro Kinase Assays—MDA-MB-231 cells (2×10^6) were lysed for 30 minutes at 4° C. in RIPA-150 buffer (10 mM Tris pH 7.5, 150 mM NaCl, 10% glycerol, 5 mM EDTA, 1% Triton X-100, 0.1% SDS, 100 μM sodium orthovanadate, 1 μM aprotinin, 10 μM leupeptin, 10 μM antipain). Cell debris was pelleted at 13000 rpm for 15 minutes at 4° C. and the lysate was rocked overnight with 10 μg of either c-Raf or MEK antibodies (Santa Cruz Biotechnologies, Santa Cruz, Calif.). 25 μl of protein A/G PLUS agarose (Santa Cruz Biotechnology) was then added and rocked for 4 hours at 4° C. Samples were spun at 2000 rpm for 5 minutes to collect the agarose beads, which were then washed four times with lysis buffer. On the final wash each pellet was divided into 5. […]

T1 sequence (Q02750 whole entry): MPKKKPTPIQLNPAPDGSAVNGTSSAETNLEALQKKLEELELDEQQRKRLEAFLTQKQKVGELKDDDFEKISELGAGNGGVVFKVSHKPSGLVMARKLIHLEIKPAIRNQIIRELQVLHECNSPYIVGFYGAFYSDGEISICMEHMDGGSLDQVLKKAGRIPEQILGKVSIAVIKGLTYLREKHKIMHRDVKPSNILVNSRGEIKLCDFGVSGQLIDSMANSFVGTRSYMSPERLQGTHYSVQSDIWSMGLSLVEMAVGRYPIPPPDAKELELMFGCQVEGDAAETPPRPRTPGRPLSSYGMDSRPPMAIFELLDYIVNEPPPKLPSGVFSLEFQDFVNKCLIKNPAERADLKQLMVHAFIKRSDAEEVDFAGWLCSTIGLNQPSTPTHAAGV

Row | SMILES | Rap-1 activation (GTP-loaded Rap-1) (Rap-1) | also measured
1 | O=S(=O)(NCCNC/C=C/c1ccc(Br)cc1)c1cccc2cnccc12 [H89] | had no effect on Rap-1 activation | 
2 | Cc1ccc(OCC(O)C(C)NC(C)C)c2c1CCC2 (stereo not drawn) [ICI 118, 551] |  | effect of β2 antagonist on ARA-211 suppression of P-Erk 1/2 levels (P-Erk 1/2): prevented ARA-211 from suppressing P-Erk 1/2 levels; effect of β2 AR antagonist on ARA-211 inhibition of tumor cell growth (MDA-MB-231 cells): rescued human cancer cells from ARA-211 inhibition of tumor cell growth
3 | CC(C)NCC(O)c1ccc(O)c(O)c1 (stereo not drawn) [isoproterenol] | activated Rap-1 | 
4 | N#CC(=C(/N)Sc1ccccc1N)/C(C#N)=C(\N)Sc1ccccc1N [U-0126] |  | in vitro Mek-1 kinase activity (Mek-1): blocked
5 | CO[C@@H]1[C@@H]2OP(=O)(O)OC[C@H]2O[C@H]1n1c(Sc2ccc(Cl)cc2)nc2c(N)ncnc21 [EPAC activator, 8-(4-chlorophenylthio)-2′-O-methyladenosine-3′,5′-cyclic monophosphate] | activated Rap-1 | 
